Like-named read-outs stand apart in the source and are kept apart here.
Tests used:
[1] = test system: BRCA1 mRNA expression in MDA-MB-231 cells; test: qRT-PCR assay: inhibition of BRCA1 mRNA expression in MDA-MB-231 cells; format: cell-based, human; details: 24 h exposure, BRCA1 mRNA normalised to GAPDH, median, read-out: RTqPCR-MDA-MB-231 IC50 [mol/l] BRCA1 (median)
Experimental: 3. qRT-PCR Assay: BRCA1, ATR, MCL1 in MDA-MB-231, CAL-120
Tissue cultured human MDA-MB-231 human breast cancer cells were plated in 500 microL per well at 200,000 cells/well in a 24 well microtiter plate. After 24 h, the cells were exposed continuously for 24 h to test substances (substances were added with Tecan HP D300 Dispenser). RNA was prepared using Qiagen RNeasy MiniKit (#74106), RNA was quantified using a NanoDrop Equipment, and 600 nano gamms of RNA was coverted to cDNA using a SuperScript VILO kit (Thermofisher #11755050) followed by qPCR amplification. BRCA1 and ATR gene expression was measured by RT-qPCR and normalised to GAPDH housekeeping gene expression. qPCR primer sets have been purchased from Thermo Fisher Scientific/Applied Biosystems: BRCA1, # Hs 01556193; ATR, #Hs 00992123; GAPDH, #Hs 03929097.

[2] = test system: MDA-MB-231 human breast cancer cells; test: Proliferation assay MDA-MB-231 (crystal violet); format: cell-based; details: MDA-MB-231 cells, 4 days, median, read-out: Prolif-MDA MB231 IC50 - [mol/l] (median)
Experimental: 4. Proliferation assay: MDA-MB-231, CAL-120
Human tumour cells were originally obtained from the American Type Culture Collection (ATCC), or from the Deutsche Sammlung von Mikroorganismen and Zellkulturen (DSMZ, German Collection of Microorganisms and Cell Cultures). Cultivated tumour cells (CAL-120, human breast adenocarcinoma cells, DSMZ ACC-459; MDA-M B-231, human breast cancer cells, ATCC HTB-26) were plated at a density of 4,000 cells/well in a 96-well multititer plate in 200 microL of their respective growth medium supplemented 10% fetal calf serum. After 24 hours, the cells of one plate (zero-point plate) were stained with crystal violet (see below), while the medium of the other plates was supplemented with the test substances in various concentrations (0 micromol/L, as well as in the range of 0.01-10 micromol/L; the final concentration of the solvent dimethyl sulfoxide was adjusted to 0.1%) using a Tecan HP D300 Digital Dispenser. The cells were incubated for 4 days in the presence of test substances. Cell proliferation was determined by staining the cells with crystal violet: the cells were fixed by adding 20 microL/measuring point of an 11% glutaric aldehyde solution for 15 minutes at room temperature. After three washing cycles of the fixed cells with water, the plates were dried at room temperature. The cells were stained by adding 100 microL/measuring point of a 0.1% crystal violet solution (pH 3.0). After three washing cycles of the stained cells with water, the plates were dried at room temperature. The dye was dissolved by adding 100 microL/measuring point of a 10% acetic acid solution. The extinction was determined by photometry at a wavelength of 595 nm. The change of cell number, in percent, was calculated by normalization of the measured values to the extinction values of the zero-point plate(=0%) and the extinction of the untreated (0 μM) cells(=100%). The IC50 values (inhibitory concentration at 50% of maximal effect) were determined by means of a 4 parameter fit.

Row | Compound | IC50 ([1]; Homo sapiens, MDA-MB-231, 24 h) [nM] | IC50 ([2]; Homo sapiens, MDA-MB-231, 96 h) [nM] | IC50 [1] [nM] | IC50 [2] [nM]
1 | CN1CCC(n2nc(NCc3nc4ccccc4[nH]3)c3ncc(C4CC4)nc32)CC1 [Example 1, N-[(1H-benzimidazol-2-yl)methyl]-6-cyclopropyl-1-(1-methylpiperidin-4-yl)-1H-pyrazolo[3,4-b]pyrazin-3-amine] | 13.7 | 24.9 | – | –
2 | CN1CCC(n2nc(NCc3nc4cc(Cl)c(F)cc4[nH]3)c3ncc(C4CC4)nc32)CC1 [Example 29, N-[(5-chloro-6-fluoro-1H-benzimidazol-2-yl)methyl]-6-cyclopropyl-1-(1-methylpiperidin-4-yl)-1H-pyrazolo[3,4-b]pyrazin-3-amine] | 9.47 | 14.5 | – | –
3 | O[C@H]1C[C@@H](Cn2nc(NCc3nc4ccccc4[nH]3)c3ncc(C4CC4)nc32)C1 [Example 71, cis-3-[(3-{[(1H-benzimidazol-2-yl)methyl]amino}-6-cyclopropyl-1H-pyrazolo[3,4-b]pyrazin-1-yl)methyl]cyclobutan-1-ol] | 3.01 | 70.8 | – | –
4 | COCCC(C)n1nc(NCc2nc3ccccc3[nH]2)c2ncc(C3CC3)nc21 (single isomer, unassigned; (-)) [Example 58, (−)-N-[(1H-benzimidazol-2-yl)methyl]-6-cyclopropyl-1-[4-methoxybutan-2-yl]-1H-pyrazolo[3,4-b]pyrazin-3-amine] | – | – | 28.2 | 213
5 | CN1CCCC(n2nc(NCc3nc4ccccc4[nH]3)c3ncc(C4CC4)nc32)CC1 (single isomer, unassigned) [Example 37, (+) or (−)-N-[(1H-benzimidazol-2-yl)methyl]-6-cyclopropyl-1-[(4R*)-1-methylazepan-4-yl]-1H-pyrazolo[3,4-b]pyrazin-3-amine] | 11.3 | – | – | 15.1
6 | CC1CC(n2nc(NCc3nc4ccccc4[nH]3)c3ncc(C4CC4)nc32)CCN1C (racemic) [Example 41, (±)-cis/trans-N-[(1H-benzimidazol-2-yl)methyl]-6-cyclopropyl-1-(1,2-dimethylpiperidin-4-yl)-1H-pyrazolo[3,4-b]pyrazin-3-amine] | 20.6 | 67.1 | – | –
7 | O[C@H]1C[C@@H](n2nc(NCc3nc4ccccc4[nH]3)c3ncc(C4CC4)nc32)C1 [Example 40, cis-3-(3-{[(1H-benzimidazol-2-yl)methyl]amino}-6-cyclopropyl-1H-pyrazolo[3,4-b]pyrazin-1-yl)cyclobutan-1-ol] | 8.65 | 83.9 | – | –
8 | O=CO.c1ccc(-n2nc(NCc3nc4ccccc4[nH]3)c3ncc(C4CC4)nc32)cc1 [Example 13, formic acid—N-[(1H-benzimidazol-2-yl)methyl]-6-cyclopropyl-1-phenyl-1H-pyrazolo[3,4-b]pyrazin-3-amine (1/1)] | 39 | 168 | – | –
9 | CC(C)(O)C1CC(n2nc(NCc3nc4ccccc4[nH]3)c3ncc(C4CC4)nc32)C1 (mixture of isomers) [Example 48, 2-[cis/trans-3-(3-{[(1H-benzimidazol-2-yl)methyl]amino}-6-cyclopropyl-1H-pyrazolo[3,4-b]pyrazin-1-yl)cyclobutyl]propan-2-ol] | 39.5 | 66.1 | – | –
10 | CC(C)(O)CCn1nc(NCc2nc3ccccc3[nH]2)c2ncc(C3CC3)nc21 [Example 76, 4-(3-{[(1H-benzimidazol-2-yl)methyl]amino}-6-cyclopropyl-1H-pyrazolo[3,4-b]pyrazin-1-yl)-2-methylbutan-2-ol] | 7.4 | 124 | – | –
11 | CN1CCC(n2nc(NCc3nc4cc(F)c(F)cc4[nH]3)c3ncc(C4CC4)nc32)CC1 [Example 30, 6-cyclopropyl-N-[(5,6-difluoro-1H-benzimidazol-2-yl)methyl]-1-(1-methylpiperidin-4-yl)-1H-pyrazolo[3,4-b]pyrazin-3-amine] | 11.7 | 29.9 | – | –
12 | Fc1ccc2[nH]c(CNc3nn(C4CCOCC4)c4nc(C5CC5)cnc34)nc2c1F [Example 32, 6-cyclopropyl-N-[(4,5-difluoro-1H-benzimidazol-2-yl)methyl]-1-(oxan-4-yl)-1H-pyrazolo[3,4-b]pyrazin-3-amine] | 29 | 5.52 | – | –
13 | COc1cccc2[nH]c(CNc3nn(C4CCN(C)CC4)c4nc(C5CC5)cnc34)nc12 [Example 2, 6-cyclopropyl-N-[(4-methoxy-1H-benzimidazol-2-yl)methyl]-1-(1-methylpiperidin-4-yl)-1H-pyrazolo[3,4-b]pyrazin-3-amine] | 8.55 | 10.8 | – | –
14 | CN1CCC(n2nc(NCc3nc4c(F)cccc4[nH]3)c3ncc(C4CC4)nc32)CC1 [Example 3, 6-cyclopropyl-N-[(4-fluoro-1H-benzimidazol-2-yl)methyl]-1-(1-methylpiperidin-4-yl)-1H-pyrazolo[3,4-b]pyrazin-3-amine] | 8.64 | 3.73 | – | –
15 | Cc1c(Cl)ccc2[nH]c(CNc3nn(C4CCN(C)CC4)c4nc(C5CC5)cnc34)nc12 [Example 21, N-[(5-chloro-4-methyl-1H-benzimidazol-2-yl)methyl]-6-cyclopropyl-1-(1-methylpiperidin-4-yl)-1H-pyrazolo[3,4-b]pyrazin-3-amine] | 26.1 | 11.3 | – | –
16 | CN1CCC(n2nc(NCc3nc4cc(Cl)c(Cl)cc4[nH]3)c3ncc(C4CC4)nc32)CC1 [Example 19, 6-cyclopropyl-N-[(5,6-dichloro-1H-benzimidazol-2-yl)methyl]-1-(1-methylpiperidin-4-yl)-1H-pyrazolo[3,4-b]pyrazin-3-amine] | 8.59 | 4.83 | – | –
17 | COc1cccc2[nH]c(CNc3nn(C4CCOCC4)c4nc(C5CC5)cnc34)nc12 [Example 24, 6-cyclopropyl-N-[(4-methoxy-1H-benzimidazol-2-yl)methyl]-1-(oxan-4-yl)-1H-pyrazolo[3,4-b]pyrazin-3-amine] | 4.77 | 12.4 | – | –
18 | COCCC(C)n1nc(NCc2nc3ccccc3[nH]2)c2ncc(C3CC3)nc21 (single isomer, unassigned; (+)) [Example 59, (+)-N-[(1H-benzimidazol-2-yl)methyl]-6-cyclopropyl-1-[4-methoxybutan-2-yl]-1H-pyrazolo[3,4-b]pyrazin-3-amine] | – | – | 248 | 816
19 | c1ccc2[nH]c(CNc3nn(C4CCCC4)c4nc(C5CC5)cnc34)nc2c1 [Example 39, N-[(1H-benzimidazol-2-yl)methyl]-1-cyclopentyl-6-cyclopropyl-1H-pyrazolo[3,4-b]pyrazin-3-amine] | 107 | 315 | – | –
20 | COC(C)(C)CCn1nc(NCc2nc3ccccc3[nH]2)c2ncc(C3CC3)nc21 [Example 67, N-[(1H-benzimidazol-2-yl)methyl]-6-cyclopropyl-1-(3-methoxy-3-methylbutyl)-1H-pyrazolo[3,4-b]pyrazin-3-amine] | 78 | 268 | – | –

From patent publication US20230192700A1, “PYRAZOLOPYRAZINES ACTING ON CANCERS VIA INHIBITION OF CDK12” (Bayer Aktiengesellschaft, priority 2020, published 2023)
